According to publication PMC6535779, “A Specific, Glycomimetic Langerin Ligand for Human Langerhans Cell Targeting” (ACS Central Science, 2019):

Tests used:
[1] = target: T1, Langerin extracellular domain (ECD) (Homo sapiens, UniProt Q9UJ71); experiment: 19F R2-filtered NMR reporter displacement assay with Langerin; format: binding; conditions: for Ki: 19F R2-filtered NMR, 0.1 mM reporter ligand 24, pH 7.8, 25 °C; for Relative potency, Langerin: calculated utilizing the KI value determined for GlcNAc
T1 construct: the trimeric Langerin extracellular domain (ECD) was expressed insolubly in E; made in house
T1 sequence (Q9UJ71 65-328 limits assumed): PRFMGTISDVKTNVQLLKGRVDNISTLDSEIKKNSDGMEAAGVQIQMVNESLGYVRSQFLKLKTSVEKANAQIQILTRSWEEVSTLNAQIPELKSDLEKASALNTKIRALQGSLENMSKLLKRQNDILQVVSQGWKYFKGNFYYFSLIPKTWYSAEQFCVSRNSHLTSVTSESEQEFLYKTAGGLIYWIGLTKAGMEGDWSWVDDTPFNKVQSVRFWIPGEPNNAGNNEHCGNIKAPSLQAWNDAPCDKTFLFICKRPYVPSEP
Experimental: Receptor Expression and Purification
General remarks. Codon-optimized genes for the expression of Langerin and DC-SIGN in E. coli were purchased from GenScript and Life Technologies, respectively. All growth media or chemicals used for receptor expression and purification were purchased from Carl Roth if not stated otherwise.
Langerin extracellular domain. Expression and purification were conducted as previously published14. Briefly, the trimeric Langerin extracellular domain (ECD) was expressed insolubly in E. coli BL21* (DE3) (Invitrogen). Following enzymatic cell lysis, inclusion bodies were harvested and subsequently solubilized. The sample was centrifuged and the Langerin ECD was refolded overnight via rapid dilution. Next, the sample was dialyzed overnight, centrifuged and purified via mannan-agarose affinity chromatography (Sigma Aldrich). For 19F R2-filtered NMR and lipid-enzyme-linked lectin assay (Lipid-ELLA) experiments, the buffer was exchanged to 25 mM Tris with 150 mM NaCl and 5 mM CaCl2 at pH 7.8 using 7 kDa size-exclusion desalting columns (Thermo Scientific). For […]
D2O, 150 mM NaCl and 5 mM CaCl2 at pH 7. The concentration of Langerin ECD was determined via UV spectroscopy (A280, 0.1% = 2.45). Purity and monodispersity of Langerin ECD samples were analyzed via SDS PAGE and DLS. […]
General remarks. 19F R2-filtered NMR experiments were conducted on a PremiumCompact 600 MHz spectrometer (Agilent). Spectra were processed in MestReNova and data analysis was performed with OriginPro 13, 15. Experiments with the Langerin ECD were performed at a receptor concentration of 50 μM in 25 mM Tris with 10% D2O, 150 mM NaCl and 5 mM CaCl2 at pH 7.8 and 25° C. […]
10% D2O, 150 mM NaCl and 5 mM CaCl2 at pH 7.0 and 25°C. TFA served as an internal reference at a concentration of 50 μM. Apparent relaxation rates R2,obs for the reporter ligand were determined using the CPMG pulse sequence as previously published3-5. […]
KI determination. KI values were determined as previously published for Langerin3. Briefly, titration experiments were conducted at a concentration of 0.1 mM of reporter ligand 24 at five competitor concentrations [I]T. Samples were prepared via serial dilution. For the acids GlcNS, GlcNAc-6-OS and GlcNS-6-OS the pH values were monitored and adjusted to 7.8 if necessary.
General remarks. 15N HSQC NMR experiments were conducted on an Ascend 700 MHz spectrometer (Bruker)16. Spectra were processed in NMRPipe17. Data analysis was performed using CCPN Analysis, MatLab and OriginPro15, 18-19. Experiments with the Langerin CRD were performed at a receptor concentration of 100 μM in 25 mM HEPES with 10% D 2O, 150 mM NaCl and 5 mM CaCl2 at pH 7.8 and 25° C. DSS-d6 served as an internal reference at a concentration of 100 μM. Spectra were referenced via the internal spectrometer reference. Spectra were acquired with 128 increments and 32 scans per increments for 150 μl samples in 3 mm sample tubes. The relaxation delay d1 was set to 1.4 s and the acquisition time tacq was set to 100 ms. The W5 Watergate pulse sequence was used for solvent suppression20. The used resonance assignment for the Langerin CRD has been published […]
KD determination. KD values were determined in titration experiments at six ligand concentrations [L]T. Samples were prepared via serial dilution. Chemical shift perturbations CSPs for Langerin CRD resonances in the fast or fast-to-intermediate exchange regime observed upon titration with ligand were calculated via Equation 121.

Langerin^+ THP-1 cells = experiment: Colorimetric cytotoxicity assay, Langerin+ THP-1 cells; format: cell-based, human; conditions: doxorubicin encapsulated in liposomes or free, 48 h
Experimental: (§1) the PEG-DSPE was substituted with glycolipids 22 or 23 at varying ratios. PEG-DSPE (3.0 kDa, NOF Europe), 22 or 23 were dissolved in DMSO, added to a round bottom flask and lyophilized. Next, DSPC (NOF Europe) and cholesterol (Sigma Aldrich) were dissolved in chloroform, added to the test tube and the solvent was removed in vacuo. The residue was dissolved in PBS and the mixture was vortexed and sonicated repeatedly until a homogeneous suspension was obtained. Unilamellar liposomes were prepared using a pore extruder (Avanti Polar Lipids) with polycarbonate membranes of 800, 400, 200 and finally 100 nm pore size (Avanti Polar Lipids). […]
(§2) The Lipid-ELLA was conducted as previously published35. […] Binding of the Langerin ECD was detected via absorbance A450 measurements at 450 nm using a SpectraMax spectrometer (Molecular Devices) in three independent titrations.
(§3) CO2. […] After centrifugation at 400 g for 5 min the supernatant was analyzed in the TNF-α ELISA. […]
(§4) To assess the cytotoxicity of doxorubicin-containing liposomes with THP-1 cells, 50,000 cells per well were added to 96 well microtiter plates (Corning) and incubated in presence of liposomes at a given total lipid concentration [Lipid]T in a final volume of 100 μl for 48 h at 37°C and 5% CO2. Cell viability was analyzed using CellTiter 96 (Promega) by measuring formazan absorbance at 490 nm. […]

Langerin^– THP-1 cells = experiment: Colorimetric cytotoxicity assay, Langerin- THP-1 cells; format: cell-based, human; conditions: doxorubicin encapsulated in liposomes or free, 48 h
Experimental: as §1, §2, §3, §4

Ki [1] [mM]	Relative potency, Langerin [1]	affinity increase over Man-based reference molecule 21 ([1]; from KI values, Langerin, b47 words it as over natural glycans) [fold]	SMILES	killing of Langerin^+ THP-1 cells (Langerin^+ THP-1 cells)	killing of Langerin^– THP-1 cells (Langerin^– THP-1 cells)
4.1 ± 0.7	1.0	–	CC(=O)N[C@@H]1[C@@H](O)[C@H](O)[C@@H](CO)O[C@H]1O [GlcNAc, N-acetyl glucosamine]	–	–
0.6 ± 0.1	6.8	–	CC(=O)N[C@H]1C(O)O[C@H](COS(=O)(=O)O)[C@@H](O)[C@@H]1O (stereo partly shown) [GlcNAc-6-OS, N-acetyl glucosamine-6-sulfate]	–	–
1.4 ± 0.2	2.9	–	O=S(=O)(O)N[C@H]1C(O)O[C@H](CO)[C@@H](O)[C@@H]1O (stereo partly shown) [GlcNS, glucosamine-2-sulfate]	–	–
0.28 ± 0.06	14	–	O=S(=O)(O)N[C@H]1C(O)O[C@H](COS(=O)(=O)O)[C@@H](O)[C@@H]1O (stereo partly shown) [GlcNS-6-OS, glucosamine-2-sulfate-6-sulfate]	–	–
21 ± 4	0.20	–	OC[C@H]1OC(O)[C@H](O)[C@@H](O)[C@@H]1O (stereo partly shown) [Glc]	–	–
–	–	42	Cc1ccc(S(=O)(=O)N[C@H]2[C@H](OCCN)O[C@H](CO)[C@@H](O)[C@@H]2O)cc1 [compound 15]	–	–
–	–	–	COc1cccc2c1C(=O)c1c(O)c3c(c(O)c1C2=O)C[C@@](O)(C(=O)CO)C[C@@H]3O[C@H]1C[C@H](N)[C@H](O)[C@H](C)O1 [free doxorubicin, doxorubicin]	killed both Langerin^+ and Langerin^– cells	killed both Langerin^+ and Langerin^– cells
